From patent US6887904B2, “Substituted arylcycloalkanes, compositions containing them and use thereof” (Aventis Pharma S. A., priority 2001, dated 2005)

Experiments:
[1] = biological target: Tubulin (Sus scrofa, UniProt P02550+P02554); assay: Inhibition of tubulin polymerization (turbidimetry); assay type: biochemical, pig; conditions: tubulin 10 μM, 37° C., turbidity at 350 nm
Procedure: Tubulin is purified from pig brains according to the published methods (Shelanski et al., 1973, Proc. Natl, Acad. Sci. USA, 70, 765-768. Weingarten et al., 1975, Proc. Natl, Acad. Sci. USA, 72, 1858-1862). Briefly, the brains are ground and centrifuged in an extraction buffer. The tubulin, contained in the extract supernatant, is subjected to two successive cycles of polymerization at 37° C. and depolymerization at 4° C., before being separated from the MAPs (Microtubule Associated Proteins) by chromatography on a phosphocellulose P11 column (Whatman). The tubulin thus isolated is more than 95% pure. It is stored in a buffer known as RB/2 30% glycerol, the composition of which is MES-NaOH [2-(N-morpholino)ethanesulfonic acid] 50 mM, pH 6.8; MgCl2 0.25 mM; EGTA 0.5 mM; 30% glycerol (v/v), GTP (guanosine 5′-triphosphate) 0.2 mM. The polymerization of the tubulin into microtubules is monitored by turbidimetry as follows; the tubulin is adjusted to a concentration of 10 μM (1 mg/ml) in the RB/2 30% glycerol buffer, to which is added 1 mM GTP and 6 mM MgCl2. The polymerization is initiated by increasing the temperature from 6° C. to 37° C. in a cuvette with a 1 cm optical pathlength, placed in a Uvikon 931 spectrophotometer (Kontron) equipped with a thermostatically-regulated cuvette holder. The increase in the turbidity of the solution is monitored at 350 nm. The products are dissolved at 10 mM in DMSO and added at variable concentrations (0.5 to 10 μM) to the tubulin solution before polymerization. The IC50 value is defined as the concentration of product which inhibits 50% of the rate of polymerization. A product whose IC50 value is less than or equal to 3 μM is considered as very active.

[2] = tested on: HeLa cells; assay: Inhibition of proliferation of HeLa cells ([14C]-thymidine incorporation); assay type: cell-based, human
Procedure: The proliferation of HeLa cells is assessed by measuring the incorporation of [^14C]-thymidine in the following way. The HeLa cells (epithelial tumor cells of human origin) are cultured in a DMEM medium (Gibco) which contains 10% fetal calf serum and antibiotics (1% penicillin, 1% streptomycin). To carry out the proliferation test, the cells are inoculated into 96-well cytostar microplates (Amersham), at a rate of 5 000 cells per well. [^14C]-thymidine (0.1 μCi/well) and the products to be assessed are then added. Variable concentrations of product up to 10 μM are used; the DMSO (solvent used to dissolve the products) should not exceed 0.5% in the medium. After incubation for 48 hours at 37° C., the radioactivity incorporated into the cells is measured by counting the plate in a TRI-LUX counter (Wallac). The IC50 value is defined as the concentration of product which reduces the radioactivity by 50% relative to an untreated control. A product whose IC50 value is less than 1 μM is considered as cytotoxic.

[3] = tested on: HDMEC cells; assay: Inhibition of proliferation of HDMEC cells; assay type: cell-based; conditions: Homo sapiens
[4] = tested on: HDMEC cells; assay: Detachment effect on HDMEC endothelial cells; assay type: cell-based, human; conditions: treatment for two hours
Source text: A test to determine the detachment of endothelial cells was established in order to select the products on the basis of their “in vitro” activity. This test for determining the endothelial cell detachment is characterized in that the endothelial cells, inoculated in plates which are coated at the bottom with a binder, e.g., chosen from gelatin, fibronectin or vitronectin, after culturing, are supplemented with a medium containing the test compound, and the cells are then labeled with a fluorescent substance, the cells which become detached are removed by washing and the fluorescence of the remaining cells is counted in a fluorimeter.
This test consists in measuring the detachment of endothelial cells cultured on substrates based on a binder, e.g., chosen from fibronectin, vitronectin and gelatin. […] The fluorescence of the remaining cells is counted in a fluorimeter. […]
The assessment of the detachment of the endothelial cells in vitro is determined in the following way. […] The fluorescence of the cells which remain attached to the substratum of the well is counted using a fluorimeter, Spectrafluor Plus (Tecan, excitation at 485 nm, and emission at 535 nm). The data are the average of six different samples and are expressed as a percentage of the control (untreated cells). […]
The assessment of the detachment of the endothelial cells in vitro is determined in the following way. […]

Chain of Tubulin (P02554 whole entry): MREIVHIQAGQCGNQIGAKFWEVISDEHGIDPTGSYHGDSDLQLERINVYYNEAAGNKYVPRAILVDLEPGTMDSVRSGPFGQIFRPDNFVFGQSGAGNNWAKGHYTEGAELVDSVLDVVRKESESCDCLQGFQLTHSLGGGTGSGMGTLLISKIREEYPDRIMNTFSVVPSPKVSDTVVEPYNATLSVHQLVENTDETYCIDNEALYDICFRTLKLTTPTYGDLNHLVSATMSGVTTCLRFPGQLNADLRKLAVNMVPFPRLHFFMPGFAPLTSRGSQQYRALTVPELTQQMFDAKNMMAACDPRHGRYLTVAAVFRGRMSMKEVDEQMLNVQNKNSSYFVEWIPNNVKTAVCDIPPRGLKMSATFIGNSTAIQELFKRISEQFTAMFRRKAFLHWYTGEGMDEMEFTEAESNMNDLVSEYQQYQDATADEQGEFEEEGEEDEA
Chain of Tubulin (P02550 whole entry): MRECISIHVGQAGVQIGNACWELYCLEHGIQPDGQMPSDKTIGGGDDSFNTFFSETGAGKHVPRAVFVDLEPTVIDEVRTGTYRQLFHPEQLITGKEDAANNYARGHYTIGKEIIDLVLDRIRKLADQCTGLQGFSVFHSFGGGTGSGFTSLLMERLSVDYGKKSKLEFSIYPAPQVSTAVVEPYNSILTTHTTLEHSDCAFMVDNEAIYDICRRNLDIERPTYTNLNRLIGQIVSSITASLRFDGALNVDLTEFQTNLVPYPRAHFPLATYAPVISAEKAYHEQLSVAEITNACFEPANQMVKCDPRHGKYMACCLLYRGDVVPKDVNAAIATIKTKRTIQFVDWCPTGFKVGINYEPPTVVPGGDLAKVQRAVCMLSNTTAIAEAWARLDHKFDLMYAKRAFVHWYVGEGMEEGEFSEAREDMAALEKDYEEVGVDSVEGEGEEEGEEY

COc1ccc(C2C3C=CC(C3)C2C(=O)c2cc(OC)c(OC)c(OC)c2)cc1O (racemic) [Example 3, [2-(3-Hydroxy-4-methoxyphenyl)bicyclo[2.2.1]hept-4-enyl](3,4,5-trimethoxyphenyl)methanone, trans racemate]
IC50 [1]: 4.5 µM | IC50 ([2]; Homo sapiens, HeLa, 48 hours): 0.52 to 1.06 µM

COc1cc(C(=O)C2CC2c2ccc(N(C)C)cc2)cc(OC)c1OC (racemic) [Example 2, [2-(4-Dimethylaminophenyl)cyclopropyl](3,4,5-trimethoxyphenyl)methanone, trans racemate]
IC50 [1]: 2.5 µM | IC50 ([2]; 48 hours): 1.45 µM | IC50 ([2]; Homo sapiens, HeLa, 48 h): 1.35 µM | IC50 [3]: 4 µM

COc1ccc(C2CC2C(=O)c2cc(OC)c(OC)c(OC)c2)cc1O (racemic) [Example 1, [2-(3-Hydroxy-4-methoxyphenyl)cyclopropyl](3,4,5-trimethoxyphenyl)methanone, trans racemate]
IC50 [1]: 1 µM | Percentage of detachment of HDMEC cells induced with the compound cited in the example at a concentration of 1 μM [4]: 36-37% | IC50 ([2]; Homo sapiens, HeLa, 48 h): < 0.0019 µM | IC50 [3]: 0.017 to 0.018 µM
